According to publication PMC8528301 (PLoS ONE, 2021):
Several values for one entry are separate records, joined by “and”; a condition that tells them apart may be missing. Identical values can stand only once.

Experiment: Dasatinib single oral gavage plasma pharmacokinetics (NLME modeling)
Assay type: in vivo, mouse
Design: DV (dasatinib plasma concentration): unit: ng/mL
Procedure: Dasatinib was dissolved in 80 mMol/L sodium citrate buffer pH 3.1 for a total dasatinib concentration of 1 mg/mL and a 10 mL/kg gavage volume. Mice were grouped by VD3 status and sex and studied at 8 and 10 weeks of age. […] Saphenous and submandibular bleeds of mice using a single-use Sarstedt Minivette POCT 50 μL K3 EDTA capillary device are humane methods for obtaining small volumes of blood over multiple time points, preferrable to retroorbital bleeds, and were approved for this study that required blood sampling at multiple time points (three) after dasatinib administration. Each mouse was sampled three times on two separate dasatinib dosing occasions. Blood was collected into the Minivette capillary device, dispensed into a microtube and vortexed to mix the anticoagulant. The tubes were then immediately centrifuged to plasma and stored on dry ice for the remainder of the study. At the end of the in vivo procedures, plasma samples were transferred from dry ice and placed at -80°C until analysis.
Total plasma dasatinib concentrations were assessed using a sensitive and specific liquid chromatography, tandem mass spectrometry (LC-MS/MS) assay. Dasatinib stock solutions were prepared in acetonitrile and used to spike matrix calibrators and quality controls. Protein precipitation was performed using a 1:4 ratio of plasma to 15 ng/mL erlotinib HCl (St. Jude Compound Management, S00004053, Inventory ID: SJCH0042996, Purity > 95%) in methanol as an internal standard. A 3μL aliquot of the extracted supernatant was injected onto a Shimadzu LC-20ADXR high performance liquid chromatography system via a LEAP CTC PAL autosampler. The LC separation was performed using a Phenomenex Kinetex 2.6 um EVO C18 (100A, 50 x 2.1 mm) maintained at 50°C with gradient elution at a flow rate of 0.5 mL/min. The binary mobile phase gradient began with a linear increase to 100% B in 4.0 minutes. The column was then rinsed for 2.0 minutes at 100% B and then equilibrated at the initial conditions for two minutes for a total run time of eight minutes.
Analyte and IS were detected with tandem mass spectrometry using a SCIEX API 5500 Q-TRAP in the positive ESI mode with monitoring of the following mass transitions: Dasatinib 488.20 -> 401.00, erlotinib HCl 394.20 -> 250.10.
The experimental bioanalytical runs were all found to be acceptable for the purpose of a singlicate non-GLP, preclinical PK assessment. A linear model (1/X^2 weighting) fit the calibrators across the 1.00 to 500 ng/mL range, with a correlation coefficient (R) of […]. The lower limit of quantification (LLOQ), defined as a peak area signal-to-noise ratio of 5 or greater verses a matric blank with IS, was 1.00 ng/mL.
§ To evaluate the plasma pharmacokinetics (PK) of dasatinib af t er two separate single oral gavage doses of solution, separated by a washout period, in normal C57BL/6 mice […]
vs 10wk) on the plasma PK of oral dasatinib us ing a nonlinear mixed effects (NLME) PK modeling […]
2. 1 In Vivo Pharmacokinetic (PK) Study
The total plasma PK of dasatinib in C57BL/6 mice (The Jackson Laboratory) was assessed after single oral gavages of 10 mg/kg of dasatinib free base equivalents. Dasatinib (St. Jude Compound […]
sodium citrate buffer pH 3.1 for a final dasatinib concentration of 1 mg/mL for a 10 mL/kg gavage volume.
Mice were grouped by Vitamin D dietary sufficiency status and sex, and studied at 8 and 10 weeks of age. Survival saphenous and facial vein bleeding of mice was conducted using IACUC-approved […]
was sampled 3 times on the 2 separate occasions of dasatinib dosing. […] The tubes were then immediately centrifuged to plasma, and stored on dry ice for […]

Cc1nc(Nc2ncc(C(=O)Nc3c(C)cccc3Cl)s2)cc(N2CCN(CCO)CC2)n1 [dasatinib]
calculated Cgut (10 mg/kg into a gastric volume of 300–400 μL): 1.5 mM
influence of VD3 status, sex, or age on oral dasatinib PK (10 mg/kg oral gavage, 8 wk vs 10 wk): no influence
Q pop (Base Model): 1.17 L/h/kg
V1 pop (apparent volume of central compartment) (Base Model): 12.7 L/kg
V2 pop (Base Model): 11.1 L/kg
omega_Cl (inter-individual variability) (Base Model): 0.294 %CV
omega_V1 (inter-individual variability) (Base Model): 0.465 %CV
Tk0 pop (Base Model, 10 mg/kg oral gavage, zero order absorption duration): 1.29 h
Q pop (Final Model): 1.26 L/h/kg
V1 pop (Final Model): 12.2 L/kg
V2 pop (Final Model): 11.2 L/kg
omega_Cl (Final Model): 0.287 %CV
omega_V1 (Final Model): 0.477 %CV
Tk0 pop (Final Model (VD3 status and sex covariates on Cl)): 1.33 h
DV (dasatinib plasma concentration) (GROUP:VD3 Def, SEX:F, OCC 1, time 0.5): 206.1 and 158.35
DV (dasatinib plasma concentration) (GROUP:VD3 Def, SEX:F, OCC 1, time 1): 457.04 and 404.1
DV (dasatinib plasma concentration) (GROUP:VD3 Def, SEX:F, OCC 1, time 2): > 500 and 323.65
DV (dasatinib plasma concentration) (GROUP:VD3 Def, SEX:F, OCC 1, time 8): 33.172 and 43.592
DV (dasatinib plasma concentration) (GROUP:VD3 Def, SEX:F, OCC 1, time 16): 2.7889 and 2.9067
DV (dasatinib plasma concentration) (GROUP:VD3 Def, SEX:F, OCC 2, time 0.125): 29.279 and 44.718
DV (dasatinib plasma concentration) (GROUP:VD3 Def, SEX:F, OCC 2, time 0.25): 240.93 and 155.4
DV (dasatinib plasma concentration) (GROUP:VD3 Def, SEX:F, OCC 2, time 0.5): 128.51 and 161.37
DV (dasatinib plasma concentration) (GROUP:VD3 Def, SEX:F, OCC 2, time 16): 6.2042 and 7.8308
DV (dasatinib plasma concentration) (GROUP:VD3 Def, SEX:M, OCC 1, time 0.25): 143.39 and 275.48
DV (dasatinib plasma concentration) (GROUP:VD3 Def, SEX:M, OCC 1, time 0.5): 240.61 and 267.78
DV (dasatinib plasma concentration) (GROUP:VD3 Def, SEX:M, OCC 1, time 2): 760.24
DV (dasatinib plasma concentration) (GROUP:VD3 Def, SEX:M, OCC 1, time 4): 99.618 and 81.306
DV (dasatinib plasma concentration) (GROUP:VD3 Def, SEX:M, OCC 1, time 8): 11.773 and 10.821
DV (dasatinib plasma concentration) (GROUP:VD3 Def, SEX:M, OCC 1, time 24): 7.0494 and 5.7321
DV (dasatinib plasma concentration) (GROUP:VD3 Def, SEX:M, OCC 2, time 0.5): 117.58 and 209.13
DV (dasatinib plasma concentration) (GROUP:VD3 Def, SEX:M, OCC 2, time 2): 376.78 and > 500
DV (dasatinib plasma concentration) (GROUP:VD3 Def, SEX:M, OCC 2, time 4): 62.561 and 70.903
DV (dasatinib plasma concentration) (GROUP:VD3 Def, SEX:M, OCC 2, time 8): 13.735 and 13.061
DV (dasatinib plasma concentration) (GROUP:VD3 Def, SEX:M, OCC 2, time 16): 8.5466 and 7.4123
DV (dasatinib plasma concentration) (GROUP:VD3 Suf, SEX:F, OCC 1, time 0.25): 244.67 and 197.71
DV (dasatinib plasma concentration) (GROUP:VD3 Suf, SEX:F, OCC 1, time 0.5): 144.41 and 217.29
DV (dasatinib plasma concentration) (GROUP:VD3 Suf, SEX:F, OCC 1, time 2): 466.97 and > 500
DV (dasatinib plasma concentration) (GROUP:VD3 Suf, SEX:F, OCC 1, time 4): 105.56 and 62.725
DV (dasatinib plasma concentration) (GROUP:VD3 Suf, SEX:F, OCC 1, time 8): 11.198 and 14.683
DV (dasatinib plasma concentration) (GROUP:VD3 Suf, SEX:F, OCC 1, time 16): 1.9898 and 3.161
DV (dasatinib plasma concentration) (GROUP:VD3 Suf, SEX:F, OCC 2, time 0.5): 124.69 and 151.83
DV (dasatinib plasma concentration) (GROUP:VD3 Suf, SEX:F, OCC 2, time 2): 295.49 and 395.48
DV (dasatinib plasma concentration) (GROUP:VD3 Suf, SEX:F, OCC 2, time 4): 72.682 and 42.565
DV (dasatinib plasma concentration) (GROUP:VD3 Suf, SEX:F, OCC 2, time 16): 9.1881 and 6.2417
DV (dasatinib plasma concentration) (GROUP:VD3 Suf, SEX:M, OCC 1, time 0.125): 35.897 and 45.322
DV (dasatinib plasma concentration) (GROUP:VD3 Suf, SEX:M, OCC 1, time 0.25): 87.715 and 117.65
DV (dasatinib plasma concentration) (GROUP:VD3 Suf, SEX:M, OCC 1, time 2): > 500 and 483.94
DV (dasatinib plasma concentration) (GROUP:VD3 Suf, SEX:M, OCC 1, time 4): 103.68 and 89.88
